Results on three compounds are retold here after ChEMBL document CHEMBL1131315, “Synthesis and anticonvulsant activity of 2(3H)-benzoxazolone and 2(3H)-benzothiazolone derivatives” (J Med Chem, 1998).

Each structure is given as a SMILES string. Calls of active or inactive are those of the source. No cut-off for these calls is given here.

Data set [1] concerns Rattus norvegicus. The experiment in a line: The compound was tested for the toxic dose on oral administration. Type of data set: functional.
Data set [2] deals with Mus musculus. Kind of data set: The compound was tested to inhibit 50% of induced subcutaneous pentylenetetrazole seizure in mice on ip administration. It is filed as functional.
Data set [3] deals with Rattus norvegicus. Kind of data set: The compound was tested per os dose of 25 mg/kg for 0.5 hours for maximal electroshock test on rats; MES= 3/4. It is filed as functional.
Data set [4] in a line: The compound was determined for the dose (mg/kg) by rotarod test at the time of peak neurotoxic effect in mice on ip administration. The note with it: mouse, in vivo. It is filed as ADME, organism-based. (In general: In the rotarod test animals must keep their balance on a rotating rod.)
In data set [5] the test system is Rattus norvegicus. The experiment in a line: (§1) The compound was tested for the toxic dose on oral administration. Type of data set: functional.
For data set [6], the system named is Mus musculus. Kind of data set: The compound was tested for anticonvulsant activity in subcutaneous pentylenetetrazole seizure test (sc Met) for 4 hr in mice; active at 300 mg/kg. It is filed as functional, organism-based. Set-up: dose 300 mg/kg.
Data set [7] relates to Rattus norvegicus. The experiment in a line: The compound was tested per os dose of 30 mg/kg for 0.25 hours for maximal electroshock test on rats; MES= 0/4. Type of data set: functional.
The nature of data set [8]: (§2) Protective index value is the ratio between ED50 and TD50. Type of data set: functional.
For data set [9], the system named is Rattus norvegicus. The experiment in a line: The compound was tested peroral dose of 25 mg/kg for 2 hours for rotarod toxicity; 0/4. Type of data set: functional. The note with it: route oral.
Data set [10] deals with Mus musculus. The experiment in a line: Inhibition of s.c. pentylenetetrazole induced seizure in mice following i.p. administration. It is filed as functional.
Data set [11] is described as follows: The compound was tested for neurologic toxicity (rotarod) test for 4 hours in mice; active at 300 mg/kg. It is filed as organism-based. Set-up: dose 300 mg/kg. Conditions: mouse, in vivo.
Data set [12] has as its system Rattus norvegicus. Kind of data set: The compound was tested per os dose of 25 mg/kg for 2 hours for maximal electroshock test on rats; MES= 2/4. Type of data set: functional.
A short description of data set [13]: The compound was tested for neurologic toxicity (rotarod) test for 30 min in mice; active at 100 mg/kg. It is filed as organism-based. Details: dose 100 mg/kg. The note with it: mouse, in vivo, 0.5 h.
In data set [14] the test system is Mus musculus. Kind of data set: Time of peak effect in mice following i.p. administration. Type of data set: functional.
The nature of data set [15]: The compound was tested for time of peak effect (TPE) in hours for its toxicity in mice on ip administration. Type of data set: organism-based. The note with it: mouse, in vivo.
In data set [16] the test system is Rattus norvegicus. The experiment in a line: The compound was tested per os dose of 25 mg/kg for 4 hours for maximal electroshock test on rats; MES= 2/4. It is filed as functional. A general note: In the maximal electroshock model the usual endpoint is tonic extension of the hind limbs.
For data set [17], the system named is Rattus norvegicus. Kind of data set: The compound was tested peroral dose of 25 mg/kg for 4 hours for rotarod toxicity; 0/4. It is filed as functional. Conditions: route oral.
The subject of data set [18] is Rattus norvegicus. Kind of data set: The compound was tested peroral dose of 25 mg/kg for 0.5 hours for rotarod toxicity; 0/4. The note with it: route oral. Type of data set: functional.
The test system of data set [19] is Rattus norvegicus. Kind of data set: The compound was tested for the effective oral dose to inhibit 50% of the anticonvulsant in rats.(Value in parenthesis indicate 95% confidence limits). Type of data set: functional.
In data set [20] the test system is Mus musculus. Kind of data set: Anticonvulsant activity in Maximal electroshock seizure test at 100 mg/kg i.p. in mice. It is filed as functional, organism-based. Details: dose 100 mg/kg.
Data set [21] has as its system Rattus norvegicus. The experiment in a line: The compound was tested peroral dose of 25 mg/kg for 1 hour for rotarod toxicity; 0/4. It is filed as functional. The note with it: route oral.
In data set [22] the test system is Rattus norvegicus. Kind of data set: The compound was tested per os dose of 25 mg/kg for 1 hour for maximal electroshock test on rats; MES= 3/4. It is filed as functional.
The subject of data set [23] is Mus musculus. The experiment in a line: The compound was tested for anticonvulsant activity in Maximal electroshock seizure test (MES) for 4 hr in mice(ip); active at 100 mg/kg. Type of data set: functional, organism-based. Details: dose 100 mg/kg.
In data set [24] the test system is Rattus norvegicus. The experiment in a line: The compound was tested peroral dose of 25 mg/kg for 0.25 hours for rotarod toxicity; 0/4. Type of data set: functional. The note with it: route oral.
The subject of data set [25] is Mus musculus. The experiment in a line: The compound was tested for anticonvulsant activity in subcutaneous pentylenetetrazole seizure test (sc Met) for 30 min in mice; active at 100 mg/kg. Type of data set: functional, organism-based. Details: dose 100 mg/kg.
In data set [26] the test system is Mus musculus. The experiment in a line: The compound was tested to inhibit 50% of induced maximal electroshock seizure in mice on ip administration. It is filed as functional.
The target of the next data set is Sigma 2 receptor. Kind of data set: Affinity on sigma 2 receptor using [3H]- DTG as radioligand.
Data set [27] deals with Rattus norvegicus. The experiment in a line: The compound was tested peroral dose of 40 mg/kg for 2 hours for maximal electroshock test on rats; MES= 1/4. It is filed as functional. The note with it: route oral.
The subject of data set [28] is Rattus norvegicus. Kind of data set: The compound was tested peroral dose of 40 mg/kg for 0.5 hours for rotarod toxicity; 0/4. It is filed as functional. The note with it: route oral.
Data set [29] in a line: as §1. It is filed as ADME. The note with it: rat.
Data set [30] relates to Rattus norvegicus. Kind of data set: The compound was tested peroral dose of 40 mg/kg for 0.5 hours for maximal electroshock test on rats; MES= 3/4. Type of data set: functional. The note with it: route oral.
Data set [31] has as its system Rattus norvegicus. The experiment in a line: The compound was tested peroral dose of 40 mg/kg for 4 hours for rotarod toxicity; 0/4. The note with it: route oral. Type of data set: functional.
For data set [32], the system named is Rattus norvegicus. Kind of data set: The compound was tested for the effective oral dose to inhibit 50% of the anticonvulsant in rats. It is filed as functional.
Data set [33] in a line: The compound was tested for neurologic toxicity (rotarod) test for 4 hours in mice; no activity or no toxicity at 300 mg/kg. It is filed as organism-based. Details: dose 300 mg/kg. The note with it: mouse, in vivo.
Data set [34] relates to Mus musculus. The experiment in a line: Anticonvulsant activity in subcutaneous pentylenetetrazole seizure test for 30 min in mice; No activity/toxicity at 300 mg/kg. Type of data set: functional, organism-based. Details: dose 300 mg/kg.
The subject of data set [35] is Rattus norvegicus. Kind of data set: The compound was tested peroral dose of 40 mg/kg for 4 hours for maximal electroshock test on rats; MES= 0/4. Type of data set: functional. The note with it: route oral.
The subject of data set [36] is Mus musculus. The experiment in a line: The anticonvulsant activity in subcutaneous pentylenetetrazole seizure test (sc Met) for 4 hr in mice; no activity or no toxicity at 300 mg/kg. It is filed as functional, organism-based. Set-up: dose 300 mg/kg.
For data set [37], the system named is Rattus norvegicus. The experiment in a line: The compound was tested peroral dose of 40 mg/kg for 1 hour for maximal electroshock test on rats; MES= 1/4. It is filed as functional. Conditions: route oral.
Data set [38] concerns Rattus norvegicus. The experiment in a line: The compound was tested peroral dose of 40 mg/kg for 2 hours for rotarod toxicity; 0/4. Type of data set: functional. Conditions: route oral.
Data set [39] in a line: The compound was tested for neurologic toxicity (rotarod) test for 30 min in mice; active at 300 mg/kg. Conditions: mouse, in vivo, 0.5 h. Type of data set: organism-based. Details: dose 300 mg/kg.
Data set [40] has as its system Mus musculus. The experiment in a line: The compound was tested for anticonvulsant activity in Maximal electroshock seizure test for 30 min in mice(ip); active at 30 mg/kg. Type of data set: functional, organism-based. Details: dose 30 mg/kg.
Data set [41] relates to Rattus norvegicus. The experiment in a line: The compound was tested peroral dose of 40 mg/kg for 1 hour for rotarod toxicity; 0/4. Type of data set: functional. Conditions: route oral.
Data set [42] is filed under the species Rattus norvegicus. Described as §2. Type of data set: functional.
The target of data set [43] is Sigma non-opioid intracellular receptor 1 (Homo sapiens) (UniProt Q99720). The experiment in a line: Ratio between the Ki(nM)values of sigma-2 and sigma-1. Type of data set: functional.
Sigma non-opioid intracellular receptor 1 (Homo sapiens), sequence (Q99720 whole entry): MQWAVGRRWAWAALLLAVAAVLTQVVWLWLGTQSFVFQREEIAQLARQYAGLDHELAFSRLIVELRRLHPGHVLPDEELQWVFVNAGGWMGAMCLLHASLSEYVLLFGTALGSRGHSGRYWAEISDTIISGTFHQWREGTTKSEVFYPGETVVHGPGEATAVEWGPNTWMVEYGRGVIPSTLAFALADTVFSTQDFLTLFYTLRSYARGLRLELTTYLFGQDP
The test system of data set [44] is Mus musculus. The experiment in a line: The compound was tested for anticonvulsant activity in Maximal electroshock seizure test (MES) for 4 hr in mice(ip); active at 300 mg/kg. Type of data set: functional, organism-based. Set-up: dose 300 mg/kg.
Data set [45] relates to Rattus norvegicus. Kind of data set: The compound was tested peroral dose of 40 mg/kg for 0.25 hours for rotarod toxicity; 0/4. Conditions: route oral. It is filed as functional.
In data set [46] the test system is Rattus norvegicus. Kind of data set: The compound was tested peroral dose of 40 mg/kg for 0.25 hours for maximal electroshock test on rats; MES= 3/4. Type of data set: functional. Conditions: route oral.
For data set [47], the system named is Mus musculus. Kind of data set: The compound was tested to inhibit 50% of induced maximal electroshock seizure in mice on ip administration. Type of data set: functional.

Usually TD50 stands for the 50% point of the dose-response relation for the toxic effect studied. A word on the ED50: it is the dose at which the effect has come halfway, by size or by number of responders. `O=C1NC(=O)C(c2ccccc2)(c2ccccc2)N1` [PHENYTOIN]: the TD50 in the data set on Rattus norvegicus [1] was over 3000 mg/kg. In addition, the 50% effective dose (ED50) with Mus musculus [2] was over 300 mg/kg.

Regarding `Oc1nc2ccc(Cc3ccccc3)cc2o1`, the Protected/Tested with Rattus norvegicus [3] is recorded as 3; in the data set with Rattus norvegicus [7], 0; in the data set with Rattus norvegicus [12], 2; with Rattus norvegicus [16], 2; with Rattus norvegicus [22], 3. Also, the TD50 in data set [4] is 164 mg/kg; in the data set with Rattus norvegicus [5], over 500 mg/kg. Moreover, the scMet entry in the data set on Mus musculus [6] and with Mus musculus [25] was “active at 100 mg/kg” throughout. Besides, the PI in data set [8] came out at 21.7. For the same compound, the “No. of animals exhibiting toxicity / Number of animals tested” value in the data set on Rattus norvegicus [9], in the data set on Rattus norvegicus [17], in the data set with Rattus norvegicus [18], in the data set on Rattus norvegicus [21] and with Rattus norvegicus [24] was 0 in each case. Further, the figures for the ED50 in the data set on Mus musculus [10], in the data set with Rattus norvegicus [19] and in the data set on Mus musculus [26] were 77.2 mg/kg, 23.1 mg/kg and 68.3 mg/kg, respectively. In addition, the Rotarod toxicity result in data set [11] and in [13] was “active at 100 mg/kg” throughout. The Activity in the data set with Mus musculus [14] was 0.5 h. This compound had a Toxicity in data set [15] of 1 h. Also, the MES entry in the data set with Mus musculus [20] and in the data set with Mus musculus [23] was “active at 100 mg/kg” each time.

What is called Ki is a measure of affinity in units of concentration, obtained from inhibition or displacement. Low values mean a stronger hold on the target, high ones a looser hold on the target. As to `CCC(=O)c1ccc2c(c1)sc(=O)n2CCN1CCCCC1`, the TD50 in [4] is 46.3 mg/kg; in [29] it was over 110 mg/kg. On Sigma 2 receptor, this compound showed a Ki of 481 nM. Further, the Protected/Tested in the data set on Rattus norvegicus [27] stood at 1; in the data set on Rattus norvegicus [30] it was 3; with Rattus norvegicus [35], 0; with Rattus norvegicus [37] it was 1; in the data set on Rattus norvegicus [46] it was 3. Also, the “No. of animals exhibiting toxicity / Number of animals tested” value in the data set on Rattus norvegicus [28], in the data set on Rattus norvegicus [31], in the data set with Rattus norvegicus [38], with Rattus norvegicus [41] and with Rattus norvegicus [45] was 0 each time. In addition, the ED50 with Mus musculus [10] was over 55 mg/kg; in the data set on Rattus norvegicus [32], 27.2 mg/kg; in the data set on Mus musculus [47] it was 8.7 mg/kg. The Activity in the data set on Mus musculus [14] amounted to 0.25 h. The Rotarod toxicity result in data set [33] and in [39] was “active at 300 mg/kg” throughout. In data set [15], this compound yielded a Toxicity of 0.25 h. Also, the scMet result in the data set on Mus musculus [34] and in the data set on Mus musculus [36] was “No activity or no toxicity at 300 mg/kg” in each case. The MES entry with Mus musculus [40] and with Mus musculus [44] was “active at 30 mg/kg” in each case. The PI in the data set listed under Rattus norvegicus [42] is reported as 4. Besides, the Ratio in data set [43] worked out at 10.
